Measured values as given in PMC7356358 (Biomolecules, 2020).
Read-outs that look alike come from different tables or passages of the source.

Key:
DnaK [1] = biological target: T1, DnaK (Escherichia coli, UniProt P0A6Y8); test: Steady-state multi-parametric surface plasmon resonance at 25 °C with Hsp70 immobilised by amine coupling and ATP (0-20 uM) injected as analyte.; type: binding; parameters: recombinant full-length, N-terminal His6 tag (pQE30), expressed in E. coli XL1 Blue; settings: SD, n = 3; read-out: KD /µM (± standard deviation)
Experimental: Association was allowed for 2 min and dissociation was monitored for 8 min.
(§1) Standard deviations shown represent three
(§2) independent assays made using separate protein purification batches. Statistical significance of data was
(§3) Table S2. Comparative ATP binding affinities for the Hsp70 proteins
(§4) The standard deviations shown in parenthesis were […]
Target sequence in this assay (P0A6Y8 2-638): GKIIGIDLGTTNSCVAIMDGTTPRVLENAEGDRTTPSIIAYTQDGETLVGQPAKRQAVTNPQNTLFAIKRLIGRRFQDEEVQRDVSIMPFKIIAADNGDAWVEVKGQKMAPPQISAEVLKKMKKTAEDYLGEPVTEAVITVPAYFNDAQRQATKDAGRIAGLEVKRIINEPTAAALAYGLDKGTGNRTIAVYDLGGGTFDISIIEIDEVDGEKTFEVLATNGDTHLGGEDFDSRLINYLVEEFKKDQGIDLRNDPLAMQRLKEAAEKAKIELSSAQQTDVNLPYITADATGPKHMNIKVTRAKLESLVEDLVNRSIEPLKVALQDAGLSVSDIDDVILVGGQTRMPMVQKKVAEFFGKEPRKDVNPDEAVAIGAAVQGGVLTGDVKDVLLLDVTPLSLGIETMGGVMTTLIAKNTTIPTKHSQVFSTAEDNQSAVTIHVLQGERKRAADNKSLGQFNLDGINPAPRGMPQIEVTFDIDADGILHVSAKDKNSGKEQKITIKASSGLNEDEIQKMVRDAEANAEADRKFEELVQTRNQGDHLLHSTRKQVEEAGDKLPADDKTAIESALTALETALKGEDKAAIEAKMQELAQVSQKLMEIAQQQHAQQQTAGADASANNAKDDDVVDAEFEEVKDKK

KPf [2] = settings: SD, n = 3
Description: as §1, §2, §3, §4

KPf [3] = settings: read-out: Km (µM), + PfHsp40; SD, n = 3
Experimental: (§6) Hsp70 proteins at final concentration of 0.4 μM were each incubated for 5 min in buffer HKMD (10 mM HEPES-KOH pH 7.5, 100 mM KCl, 2 mM MgCl2 and 0.5 mM DTT). The reaction was initiated by the addition of ATP at various concentrations (0–5 mM) and samples were analyzed every 30 min for 4 h.
Standard deviations shown represent three independent assays made using separate protein purification batches.
validated by one way ANOVA test (p< 0.05 *) and (p<0.01**).

KPf [4] = test: ATP binding affinity by MP-SPR, KPf; parameters: species or system E. coli / P. falciparum; settings: read-out: ATP KD (± standard deviation), 25 °C, immobilized KPf, ATP analyte 0-20 μM, steady state equilibrium, three independent assays
Experimental: This assay was conducted at room temperature (25 °C) using a BioNavis Multi-parametric surface plasmon resonance (MP-SPR; BioNavis; Tampere, Finland) spectroscopy system. […] Steady state equilibrium constant data were processed and analyzed using TraceDrawer software version 1.8 (Ridgeview Instruments; Uppsala, Sweden).
Proteins Vmax (n/mol/min/mg) Km (µM)
as §1, §2
KD /µM (± standard deviation)
as §4

DnaK [5] = biological target: T1, DnaK; test: Model peptide substrate binding by MP-SPR, DnaK; parameters: His6 (polyhistidine) (N); made in house; host or cells: E. coli XL1 Blue; settings: for effect of asparagine enrichment of the peptide on DnaK's affinity: presence of ADP, N-enriched form versus this peptide; for affinity of DnaK for peptide: peptide 0-2000 nM over immobilized DnaK, presence of ADP (5 mM)
Description: (§5) The Hsp70 ligands were immobilized as previously described.
Target sequence in this assay (P0A6Y8 whole entry): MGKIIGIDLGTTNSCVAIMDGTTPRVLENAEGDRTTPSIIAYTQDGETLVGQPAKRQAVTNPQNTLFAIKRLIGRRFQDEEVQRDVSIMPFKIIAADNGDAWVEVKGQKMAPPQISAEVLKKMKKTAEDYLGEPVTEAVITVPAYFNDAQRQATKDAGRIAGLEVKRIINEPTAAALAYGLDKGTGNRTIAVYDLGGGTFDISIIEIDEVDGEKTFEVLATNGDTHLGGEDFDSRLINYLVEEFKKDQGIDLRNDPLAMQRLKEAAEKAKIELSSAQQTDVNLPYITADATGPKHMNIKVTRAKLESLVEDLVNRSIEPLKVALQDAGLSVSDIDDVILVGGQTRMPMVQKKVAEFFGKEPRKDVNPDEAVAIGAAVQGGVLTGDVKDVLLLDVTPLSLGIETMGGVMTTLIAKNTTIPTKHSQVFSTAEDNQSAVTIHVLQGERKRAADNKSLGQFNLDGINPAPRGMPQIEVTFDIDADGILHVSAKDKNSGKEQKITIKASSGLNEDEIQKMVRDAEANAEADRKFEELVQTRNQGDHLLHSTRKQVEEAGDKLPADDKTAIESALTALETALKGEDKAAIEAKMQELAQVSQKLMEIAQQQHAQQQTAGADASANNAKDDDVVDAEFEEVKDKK

KPf [6] = settings: MP-SPR; for effect of N enrichment of the peptide on affinity of KPf: presence of 5 mM ADP, N-enriched form versus this peptide
Target sequence in this assay (P11144 405-631 limits assumed): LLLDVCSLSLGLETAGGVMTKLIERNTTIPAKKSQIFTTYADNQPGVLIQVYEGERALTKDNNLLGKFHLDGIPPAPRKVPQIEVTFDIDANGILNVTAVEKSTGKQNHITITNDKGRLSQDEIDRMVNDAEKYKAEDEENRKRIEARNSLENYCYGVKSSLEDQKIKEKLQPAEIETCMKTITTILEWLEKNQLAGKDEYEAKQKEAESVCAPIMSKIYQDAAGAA
Experimental: The respective affinity of each Hsp70 for model peptide substrate was investigated by MP-SPR. The Hsp70 ligands were immobilized as previously described [36]. […] The analytes were injected at varying concentrations (0, 125 nM, 250 nM, 500 nM, 1000 nM and 2000 nM) over the immobilized ligands (Hsp70s). The analytes were injected at a flow rate of 100 µL/min and association and dissociation were allowed to occur for 10 min. The assay was conducted both in the absence and presence of 5 mM ADP/ATP. Analysis of association and dissociation data was conducted as previously described using TraceDrawer software version 1.8 (Ridgeview Instruments).

PfHsp70-1 [7] = test: Model peptide substrate binding by MP-SPR, PfHsp70-1; parameters: species or system Plasmodium falciparum; settings: for affinity of PfHsp70-1 relative to the non-enriched peptide (GFRVVLMYRF, ALLLMYRR): presence of ADP
Description: as §5

DnaK [8] = biological target: T1, DnaK; settings: MP-SPR
Target sequence in this assay (P0A6Y8 whole entry): as the sequence (P0A6Y8 whole entry) above
Experimental: (§7) As ligands, the recombinant Hsp70 proteins were immobilized on the CMD3D 500L chip. The analyte (respective Hsp70 protein) was prepared at various concentrations of 0, 125, 250, 500, 1000 and 2000 nM, respectively and injected at 50 μL/sec onto each channel with immobilized ligands. A reference channel without immobilized protein served as the control for non-specific binding and changes in refractive index. The analysis was conducted either in the absence or presence of 5 mM ATP/ADP. Association was allowed for 2 min, while dissociation was monitored for 8 min. Data analysis was conducted after double referencing by subtraction of both the baseline RU (buffer with ATP/ADP plus BSA as control protein) and RU from the reference channel. Kinetics steady-state equilibrium constant data were processed after concatenating the responses of all five analyte concentrations by global fitting using TraceDrawer software version 1.8 (Ridgeview Instruments).

[9] = Heat stability of secondary structure by far-UV CD; type: physicochemical; settings: far-UV CD at 222 nm
Experimental: Spectra was averaged for 15 scans after baseline correction (buffer without recombinant protein). The spectra were deconvoluted to α-helix, β-sheet, β-turn and unordered regions, using the Dichroweb server, (http://dichroweb.cryst.bbk.ac.uk; [37]). The effect of heat stress on the secondary structure of the Hsp70s was investigated by monitoring the spectral changes of each protein at various temperatures (19–95 °C). The folded states of each Hsp70 protein at any given temperature were determined using spectral readings obtained at 222 nm as previously described. In a separate experiment, the analysis of PfAdoMetDC protein co-expressed with the various chaperone sets was conducted by monitoring the CD spectrum at 190–240 nm at 22 °C. The assay was repeated in the presence of PfAdoMetDC substrate, S-adenosylmethionine hydrochloride (SAM), as previously described with minor modifications. Briefly, PfAdoMetDC protein was preincubated in PBS supplemented with 100 μM SAM for 30 min prior to analysis at 25 °C. The resultant spectra were monitored and averaged following baseline correction (100 μM SAM using buffer void of the protein).

[10] = ATPase activity (released inorganic phosphate); type: biochemical; settings: basal ATPase, 0.4 μM Hsp70, ATP 0-5 mM, buffer HKMD pH 7.5, SD of three independent assays
Experimental: as §6

PfAdoMetDC = test: Co-expression of PfAdoMetDC with supplementary chaperones in E. coli, fold by CD/fluorescence; type: cell-based, Plasmodium falciparum; settings: co-expression with DnaJ in E. coli BL21 Star (DE3); purified PfAdoMetDC analysed by CD, ANS and intrinsic fluorescence
Experimental: Briefly, the transformed E. coli BL21 Star (DE3) cells were cultured in LB broth supplemented with 100 μg/mL ampicillin (Sigma Aldrich) to select for pASKIBA3 and 50 μg/mL spectinomycin (Sigma Aldrich), to select for pBB535 and pBB542, respectively. As control, PfAdoMetDC expressed alone (without supplementary chaperones), was expressed in E. coli BL21 StarTM (DE3) cells as previously described [33]. The expression of chaperones was initiated by addition of 1 mM IPTG and at OD600 = 0.2 while the expression of PfAdoMetDC was initiated by addition of 2 ng/mL anhydroxytetracycline (AHT) (IBA GmbH, Göttingen, Germany) at OD600 = 0.7. Cells were incubated for 24 h (37 °C, 250 rpm) from the time of induction with IPTG. The cells were harvested by centrifugation (5000 g, 20 min, 4 °C) and the pellet was resuspended in lysis buffer (100 mM Tris pH 7.5; 300 mM NaCl; 10 mM Imidazole, containing 1 mM aminoethyl benzenesulfonyl fluoride hydrochloride (AEBSF) and 1 mg/mL of lysozyme). […] Purified PfAdoMetDC protein was quantified using the Bradford assay. […] Following Strep-Tactin Sepharose affinity column purification, PfAdoMetDC was analyzed using an Äkta explorer system (Amersham Pharmacia Biotech; Buckinghamshire, UK) fast protein liquid chromatography (FPLC), to determine migration profiles of the protein preparations that were co-expressed with the various chaperones sets. The migration pattern of PfAdoMetDC as determined by Size exclusion chromatography (SEC) was used to infer the compact/relaxed state of its fold. Retention times of the respective protein preparation were determined by SEC at 22 °C in running buffer (50 mM Tris-HCl, pH 7.5, 1 mM DTT, 500 mM NaCl and 0.02% w/v NaN3) using Bio-Select SEC 250-5 column (BioRad) with a fractionation range of 1000–250,000 Da. […] The elution profiles of the protein preparations were determined as peaks obtained at 280 nm using a Spectra Series UV100 spectrophotometer (Thermo Fischer Scientific). […]

PfHsp70-1 [11] = test: Self-association of PfHsp70-1 by MP-SPR; type: binding, Plasmodium falciparum
Experimental: as §7

[12] = 0.2 μM protein in PBS pH 7.5, 19–95 °C

Sequence of PfHsp70-1 (P11144 1-630 limits assumed): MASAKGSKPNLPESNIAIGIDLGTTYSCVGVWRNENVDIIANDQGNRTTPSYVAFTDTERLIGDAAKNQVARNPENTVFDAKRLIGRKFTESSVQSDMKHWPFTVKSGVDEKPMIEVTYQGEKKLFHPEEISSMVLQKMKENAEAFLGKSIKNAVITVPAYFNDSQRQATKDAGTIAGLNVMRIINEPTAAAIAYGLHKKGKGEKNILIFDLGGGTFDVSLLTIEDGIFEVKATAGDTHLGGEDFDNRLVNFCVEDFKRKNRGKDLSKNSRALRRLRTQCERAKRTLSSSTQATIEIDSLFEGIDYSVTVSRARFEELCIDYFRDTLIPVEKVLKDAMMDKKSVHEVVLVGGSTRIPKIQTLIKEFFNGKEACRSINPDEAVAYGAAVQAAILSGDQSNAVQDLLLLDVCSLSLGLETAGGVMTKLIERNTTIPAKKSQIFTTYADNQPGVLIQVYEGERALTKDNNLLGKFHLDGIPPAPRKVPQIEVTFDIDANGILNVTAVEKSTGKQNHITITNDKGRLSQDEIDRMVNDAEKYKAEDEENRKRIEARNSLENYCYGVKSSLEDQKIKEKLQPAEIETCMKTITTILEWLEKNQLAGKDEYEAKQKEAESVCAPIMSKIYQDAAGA

## Nc1ncnc2c1ncn2[C@@H]1O[C@H](COP(=O)(O)OP(=O)(O)OP(=O)(O)O)[C@@H](O)[C@H]1O [ATP, adenosine 5'-triphosphate]
DnaK [1]
  Kd: 83.8 µM
KPf [2]
  Km: 29.6 µM
KPf [3]
  Km: 25.7 µM

## Nc1ncnc2c1ncn2[C@@H]1O[C@H](COP(=O)(O)OP(=O)(O)OP(=O)(O)O)[C@@H](O)[C@H]1O [ATP]
KPf [4]
  Kd: 0.38 µM

## ALLLMYRR
DnaK [5]
  effect of asparagine enrichment of the peptide on DnaK's affinity: did not enhance
KPf [6]
  effect of N enrichment of the peptide on affinity of KPf: not enhanced

## ANNNMYRR
PfHsp70-1 [7]
  affinity of PfHsp70-1 relative to the non-enriched peptide (GFRVVLMYRF, ALLLMYRR): higher affinity

## DnaK: recombinant (His)6-tagged Escherichia coli Hsp70 (DnaK)
DnaK [8]; analyte DnaK 0-2000 nM over immobilized DnaK, + 5 mM ATP, global fit
  Ka: 1.38 (±0.08) × 10^2 Ms^−1
DnaK [8]; analyte DnaK over immobilized DnaK, + 5 mM ADP
  Ka: 1.22 (±0.13) × 10^2 Ms^−1
DnaK [8]; analyte DnaK over immobilized DnaK, no nucleotide
  Ka: 1.27 (±0.07) × 10^3 Ms^−1
[9]; [12]
  temperature above which the protein rapidly unfolded: above 45 °C
  temperature of complete unfolding: approximately 68 °C
[10]
  Vmax: 14.33 (± 1.4) n/mol/min/mg
PfAdoMetDC
  effect of co-produced chaperone on PfAdoMetDC folding: did not support PfAdoMetDC folding

## GFRNNNMYRF
PfHsp70-1 [7]
  affinity of PfHsp70-1 relative to the non-enriched peptide (GFRVVLMYRF, ALLLMYRR): higher affinity

## GFRVVLMYRF
DnaK [5]
  effect of asparagine enrichment of the peptide on DnaK's affinity: did not enhance
KPf [6]
  effect of N enrichment of the peptide on affinity of KPf: not enhanced

## GroEL: E. coli chaperonin co-expressed as supplementary chaperone
PfAdoMetDC
  effect of co-produced chaperone on PfAdoMetDC folding: restoration of the ß-conformation

## NRLLTG [canonical Hsp70 model peptide substrate]
DnaK [5]
  affinity of DnaK for peptide: nanomolar range

## NRNNTG
DnaK [5]
  affinity of DnaK for peptide: micromolar range
PfHsp70-1 [7]; peptide over immobilized PfHsp70-1, presence of ADP, higher than for NRLLTG
  affinity of PfHsp70-1 for peptide: nanomolar range
KPf [6]; peptide over immobilized KPf, presence of ADP, higher than for NRLLTG
  affinity of KPf for peptide: nanomolar range

## PfHsp70-1: recombinant Plasmodium falciparum Hsp70-1, cytosol-localized molecular chaperone (PF3D7_0818900)
[9]; [12]
  temperature of complete unfolding: around 90 °C
[9]; 0.2 μM protein in PBS pH 7.5, 19–95 °C, relative to 19 °C
  temperature up to which at least 50% fold is maintained: 60 °C
[9]; two-step unfolding pattern
  temperature range of second unfolding phase: 75–90 °C
[10]
  Vmax: 22.45 (± 1.8) n/mol/min/mg
PfHsp70-1 [11]; analyte PfHsp70-1 0-2000 nM over immobilized PfHsp70-1, + 5 mM ATP
  association rate constant (kon): 2.14 (±0.04) × 10^4 Ms^−1
PfHsp70-1 [11]; analyte PfHsp70-1 over immobilized PfHsp70-1, + 5 mM ADP
  association rate constant (kon): 1.00 (±0.17) × 10^2 Ms^−1
PfHsp70-1 [11]; analyte PfHsp70-1 over immobilized PfHsp70-1, no nucleotide
  association rate constant (kon): 8.51 (±1.20) × 10^3 Ms^−1
PfAdoMetDC
  effect of co-produced chaperone on PfAdoMetDC folding: fully folded status
